In patent publication US4151291A, “Ethers of 7-hydroxy-coumarin useful as medicaments” (Unicler, priority 1976, dated 1979):

What was measured:
[1] = system: pain syndrome provoked in mice by injection of phenylbenzoquinone; assay: analgesia test of Siegmund, Cadmus and Lu (phenylbenzoquinone-induced pain syndrome); format: in vivo, mice of Swiss strain; settings: oral, 30 minutes before phenylbenzoquinone, extensions counted over 10 minutes vs control
Protocol: They have in particular been submitted to the test of analgesia of Siegmund, Cadmus and Lu (Proc. Soc. Exp. Biol. Med. 95, 729, 1957) according to which a characteristic pain syndrome is provoked in mice by injection of phenylbenzoquinone.
The animals used are mice of Swiss strain weighing 20±2 grams.
The animals are separated into groups of 10, randomly but are individually submitted to experiments. Each experiment is carried out on at least two groups:
a control group receiving solvent and phenylbenzoquinone
a group treated with test compound.
The test compounds are administered orally, 30 minutes before the injection of the irritant. Each mouse then receives intraperitoneally 0.25 ml of a 0.02% phenylbenzoquinone solution.
The pain syndrome generated by the injection of phenylbenzoquinone consists of extension of the abdomen and the back legs; at the height of the reaction, the flanks of the animal are very contracted. 5 Minutes after the injection of the irritant, the extensions are counted over a period of 10 minutes.
For each group, the mean number of extensions is calculated. The activity (A) of the test compound is determined by comparison between the mean number of extensions in the treated animals (N) and the mean number of extensions in the control animals (N') according to the equation [formula]
The statistical significance of the result thus obtained is evaluated by the non-parametric test of Fisher.

[2] = oral LD50; settings: in vivo
Protocol: In addition the oral LD50 was determined for the compounds of the invention.

Question: For `C#CCOc1ccc2ccc(=O)oc2c1` [JB 1, 7-Propargyloxy-coumarin], which “Analgesic Activity A” value ([1]; dose 150 mg/kg) is on record?
Answer: 55%

Question: What about the LD50 [2] of the same compound?
Answer: 1500 mg/kg

Question: What does the source list for `C#CCOc1ccc2c(C)cc(=O)oc2c1` [JB 2, 4-Methyl-7-propargyloxy-coumarin]?
Answer: Analgesic Activity A ([1]; dose 150 mg/kg): 98%; LD50 [2]: 1500 mg/kg

Question: Which results are given for `C#CCOc1ccc2c(C)c(CC)c(=O)oc2c1` [JB 4, 3-Ethyl-4-methyl-7-propargyloxy-coumarin]?
Answer: Analgesic Activity A ([1]; dose 100 mg/kg): 65%; LD50 [2]: 1000 mg/kg

Question: For `C#CCOc1ccc2c(-c3ccccc3[N+](=O)[O-])cc(=O)oc2c1` [JB 5, 4-o-nitrophenyl-7-propargyloxy-coumarin], which “Analgesic Activity A” value ([1]; dose 200 mg/kg) is on record?
Answer: 40%

Question: What about the LD50 [2] of the same compound?
Answer: > 2000 mg/kg

Question: Which results are given for `Cc1cc(=O)oc2cc(OCC#CCN3CCOCC3)ccc12` [JB 12, 4-Methyl-7-(4-morpholino-but-2-ynyloxy)-coumarin]?
Answer: Analgesic Activity A ([1]; dose 150 mg/kg): 88%; LD50 [2]: 1500 mg/kg

Question: Which “Analgesic Activity A” value ([1]; dose 50 mg/kg) does the source give for `Cc1cc(=O)oc2cc(OCC#CCN(C)C)ccc12` [JB 16, 4-Methyl-7-(4-dimethylamino-but-2-ynyloxy)-coumarin] here?
Answer: 30%

Question: And the LD50 [2]?
Answer: 500 mg/kg

Question: Which “Analgesic Activity A” value ([1]; dose 150 mg/kg) does the source give for `C#CCOc1ccc2c(C)c(CC=C)c(=O)oc2c1` [JB 19, 3-Allyl-4-methyl-7-propargyloxy-coumarin] here?
Answer: 81%

Question: What about the LD50 [2] of the same compound?
Answer: 1500 mg/kg
